Assay [1] has as its system DLA. As to the kind of experiment: Induction of apoptosis in Swiss albino mouse DLA cells assessed as nuclear fragmentation at 50 and 100 ug/ml after 12 hrs by AO/EtBr staining based fluorescence microscopic analysis. The assay is classed as functional, cell-based.
In assay [2] the test system is Bacillus subtilis. As to the kind of experiment: Antibacterial activity against clinical isolate Gram-positive Bacillus subtilis after 24 hrs by agar diffusion assay. The assay is classed as functional. In general terms: In agar diffusion tests the substance spreads into inoculated agar from a disc or well.
In assay [3] the test system is DLA. As to the kind of experiment: Induction of apoptosis in Swiss albino mouse DLA cells assessed as nucleolus pyknosis at 50 and 100 ug/ml after 12 hrs by AO/EtBr staining based fluorescence microscopic analysis. The assay is classed as functional, cell-based.
Assay [4] deals with DLA. As to the kind of experiment: Induction of apoptosis in Swiss albino mouse DLA cells assessed as cytoplasmic vacuoles at 50 and 100 ug/ml after 12 hrs by AO/EtBr staining based fluorescence microscopic analysis. The assay is classed as functional, cell-based.
The test system of assay [5] is DLA. As to the kind of experiment: Induction of apoptosis in Swiss albino mouse DLA cells assessed as cell shrinkage at 25,50 and 100 ug/ml after 12 hrs by AO/EtBr staining based fluorescence microscopic analysis. The assay is classed as functional.
The subject of assay [6] is DLA. As to the kind of experiment: Induction of apoptosis in Swiss albino mouse DLA cells assessed as membrane blebbing at 25,50 and 100 ug/ml after 12 hrs by AO/EtBr staining based fluorescence microscopic analysis. The assay is classed as functional, cell-based.
For assay [7], the system named is DLA. As to the kind of experiment: Induction of apoptosis in Swiss albino mouse DLA cells assessed as chromatin condensation at 25,50 and 100 ug/ml after 12 hrs by AO/EtBr staining based fluorescence microscopic analysis. Format: functional, cell-based.
Assay [8] concerns DLA. As to the kind of experiment: Induction of apoptosis in Swiss albino mouse DLA cells assessed as nuclear fragmentation at 25,50 and 100 ug/ml after 12 hrs by AO/EtBr staining based fluorescence microscopic analysis. Format: functional, cell-based.
Assay [9] in a line: Induction of apoptosis in Swiss albino mouse DLA cells at 100 ug/ml after 12 hrs by AO/EtBr staining based fluorescence microscopic analysis. Format: functional.
The subject of assay [10] is Escherichia coli. As to the kind of experiment: Antibacterial activity against clinical isolates Escherichia coli after 24 hrs by agar diffusion assay. Format: functional.
The subject of assay [11] is Pseudomonas syringae. As to the kind of experiment: Antibacterial activity against clinical isolate Gram-negative Pseudomonas syringae after 24 hrs by agar diffusion assay. Format: functional.
For assay [12], the system named is Proteus vulgaris. As to the kind of experiment: Antibacterial activity against clinical isolates Proteus vulgaris after 24 hrs by agar diffusion assay. Format: functional.
Assay [13] deals with Staphylococcus aureus. As to the kind of experiment: Antibacterial activity against clinical isolates Staphylococcus aureus after 24 hrs by agar diffusion assay. Format: functional.

The structures appear in SMILES notation. ≈ marks a conversion by molar mass, not a printed value. Calls of active or inactive are those of the source. No cut-off for these calls is given here.

The record followed here is ChEMBL document CHEMBL3734682, “PPL catalyzed four-component PASE synthesis of 5-monosubstituted barbiturates: Structure and pharmacological properties” (2015).

A word on the MIC: it is the lowest concentration found to suppress growth. A lower MIC goes with a more susceptible organism.

With `CCC[C@H](c1c(C)[nH][nH]c1=O)c1c(O)[nH]c(=O)[nH]c1=O`, the outcome in assay [1], in assay [3], in [4], in assay [5], in [6] and in [7] was Active. In addition, the result in assay [8] was Active. The molecule further displayed an MIC in assay [2] of 100 mg/L (≈ 357 µM). Moreover, the Activity in assay [9] is on record as 12%.
On to `NC[C@H]1O[C@H](O[C@H]2[C@H](O)[C@@H](O[C@H]3O[C@H](CO)[C@@H](O)[C@H](N)[C@H]3O)[C@H](N)C[C@@H]2N)[C@H](O)[C@@H](O)[C@@H]1O` [KANAMYCIN], for which the MIC in assay [10] is 5 mg/L (≈ 10.3 µM); in assay [2] it was 5 mg/L (≈ 10.3 µM); in assay [11] it was 10 mg/L (≈ 20.6 µM); in assay [12], 5 mg/L (≈ 10.3 µM); in assay [13], 80 mg/L (≈ 165 µM).
On to `CCOC(=O)[C@H](c1c(C)[nH][nH]c1=O)c1c(O)[nH]c(=O)[nH]c1=O`, for which the result in [1], in assay [3], in [4], in [5], in [6] and in [7] was Active. Further, the result in assay [8] was Active. In addition, the MIC in [10], in [2], in assay [11], in [12] and in [13] was 100 mg/L (≈ 322 µM) throughout. The molecule further gave an Activity in assay [9] of 23%.
Take `Cc1[nH][nH]c(=O)c1[C@@H](c1ccc(F)cc1)c1c(O)[nH]c(=O)[nH]c1=O`: the MIC in [2] was found to be 100 mg/L (≈ 301 µM); in assay [11], 25 mg/L (≈ 75.2 µM); in assay [12], 100 mg/L (≈ 301 µM). The result in assay [5], in assay [6], in [7] and in [8] was Active.
As for `Cc1[nH][nH]c(=O)c1[C@@H](c1ccc(Cl)cc1)c1c(O)[nH]c(=S)[nH]c1=O`, the MIC in assay [2] and in [12] was 100 mg/L (≈ 274 µM) in each case. Besides, the result in assay [5], in assay [6], in assay [7] and in assay [8] was Active.
With `Cc1[nH][nH]c(=O)c1[C@@H](c1ccccc1[N+](=O)[O-])c1c(O)[nH]c(=O)[nH]c1=O`, the MIC in [10], in [2], in [11] and in assay [12] was 100 mg/L (≈ 278 µM) in each case. The result in [5], in [6], in assay [7] and in [8] was Active.
As to `Cc1[nH][nH]c(=O)c1[C@@H](c1cccc(Br)c1)c1c(O)[nH]c(=O)[nH]c1=O`, the outcome in assay [1], in assay [3], in [4], in assay [5], in assay [6] and in assay [7] was Active. The result in assay [8] was Active. For the same molecule, the MIC amounted to 25 mg/L (≈ 63.6 µM) in assay [2], 100 mg/L (≈ 254 µM) in [11] and 100 mg/L (≈ 254 µM) in assay [12]. Moreover, in assay [9], the Activity was 13%.
With `COc1ccccc1[C@H](c1c(C)[nH][nH]c1=O)c1c(O)[nH]c(=O)[nH]c1=O`, the MIC in assay [10], in assay [2], in assay [11], in assay [12] and in assay [13] was 100 mg/L (≈ 290 µM) in each case. The result in [5], in [6], in assay [7] and in [8] was Active.
Take `Cc1[nH][nH]c(=O)c1[C@@H](c1ccc([N+](=O)[O-])cc1)c1c(O)[nH]c(=O)[nH]c1=O`: the outcome in assay [1], in assay [3], in assay [4], in [5], in assay [6] and in assay [7] was Active. The result in assay [8] was Active. In addition, the MIC in assay [2] and in assay [12] was 100 mg/L (≈ 278 µM) each time. The molecule also registered an Activity in [9] of 12%.
In assay [2], `Cc1[nH][nH]c(=O)c1[C@@H](c1cccnc1)c1c(O)[nH]c(=O)[nH]c1=O` had an MIC of 100 mg/L (≈ 317 µM). Moreover, the outcome in assay [5], in assay [6], in assay [7] and in assay [8] was Active.
Take `Cc1[nH][nH]c(=O)c1[C@@H](c1cccc([N+](=O)[O-])c1)c1c(O)[nH]c(=S)[nH]c1=O`: the outcome in assay [5], in [6], in assay [7] and in assay [8] was Active.
In the case of `Cc1[nH][nH]c(=O)c1[C@@H](c1ccccc1Cl)c1c(O)[nH]c(=O)[nH]c1=O`, the MIC in assay [10], in assay [2], in [11], in [12] and in assay [13] was 100 mg/L (≈ 287 µM) throughout. For the same molecule, the result in assay [5], in [6], in assay [7] and in [8] was Active.
Consider `Cc1[nH][nH]c(=O)c1[C@@H](c1cccc(O)c1)c1c(O)[nH]c(=O)[nH]c1=O`, for which the results for the MIC in [2], in [12] and in [13] were 25 mg/L (≈ 75.7 µM), 100 mg/L (≈ 303 µM) and 100 mg/L (≈ 303 µM), respectively. In addition, the result in [5], in assay [6], in assay [7] and in assay [8] was Active.
For the molecule `Cc1[nH][nH]c(=O)c1[C@@H](c1ccc(F)cc1)c1c(O)[nH]c(=S)[nH]c1=O`, the outcome in assay [5], in [6], in [7] and in [8] was Active.
For the molecule `Cc1[nH][nH]c(=O)c1[C@@H](c1ccc(Cl)cc1)c1c(O)[nH]c(=O)[nH]c1=O`, the outcome in [1], in assay [3], in assay [4], in [5], in assay [6] and in assay [7] was Active. The outcome in [8] was Active. Also, the MIC in assay [2] amounted to 25 mg/L (≈ 71.7 µM); in assay [12], 100 mg/L (≈ 287 µM). In assay [9], the Activity is on record as 18%.
On to `COc1ccc([C@H](c2c(C)[nH][nH]c2=O)c2c(O)[nH]c(=O)[nH]c2=O)cc1`, for which the result in assay [1], in [3], in assay [4], in assay [5], in [6] and in [7] was Active. In addition, the outcome in assay [8] was Active. Also, the MIC in [2] and in assay [12] was 100 mg/L (≈ 290 µM) each time. The Activity in assay [9] stood at 15%.
For `CC1(C)S[C@@H]2[C@H](NC(=O)[C@H](N)c3ccccc3)C(=O)N2[C@H]1C(=O)O` [AMPICILLIN], the MIC in [10], in [2], in assay [11], in assay [12] and in assay [13] was 5 mg/L (≈ 14.3 µM) in each case.
In the case of `Cc1[nH][nH]c(=O)c1[C@@H](c1ccccc1)c1c(O)[nH]c(=S)[nH]c1=O`, the outcome in assay [5], in [6], in assay [7] and in assay [8] was Active.
As for `CCCC[C@H](c1c(C)[nH][nH]c1=O)c1c(O)[nH]c(=O)[nH]c1=O`, the result in assay [5], in [6], in assay [7] and in [8] was Active.
`Cc1[nH][nH]c(=O)c1[C@@H](c1ccccc1)c1c(O)[nH]c(=O)[nH]c1=O`: the MIC in assay [2] and in assay [12] was 100 mg/L (≈ 318 µM) each time. In addition, the result in assay [5], in assay [6], in [7] and in [8] was Active.
In the case of `Cc1[nH][nH]c(=O)c1[C@@H](c1cccc([N+](=O)[O-])c1)c1c(O)[nH]c(=O)[nH]c1=O`, the result in assay [1], in [3], in [4], in assay [5], in [6] and in [7] was Active. Moreover, in [8], the result was Active. Further, the MIC in [2] and in assay [12] was 100 mg/L (≈ 278 µM) each time. In assay [9], the Activity is given as 15%.
On to `CCC[C@H](c1c(C)[nH][nH]c1=O)c1c(O)[nH]c(=S)[nH]c1=O`, for which the MIC in assay [2] is 100 mg/L (≈ 337 µM). For the same molecule, the outcome in assay [5], in [6], in assay [7] and in assay [8] was Active.
